US7772408B1, “Substituted 5-alkoxypsoralens as inhibitors of potassium channel activity in lymphocytes and other cells” (The Regents of the University of California, priority 2002, dated 2010)
Where no end group is shown, it is not given here.

What was measured:
Nav1.2 = molecular target: T1, Nav1.2 (Mus musculus, UniProt B1AWN6); assay: Whole-cell patch-clamp, sodium channel Nav1.2 (N1E-115); assay type: cell-based; conditions: ratio Kd Nav1.2/Kd Kv1.3
T1 construct: endogenous in cells

Kv1.3 [1] = molecular target: Kv1.3 (UniProt P16390); assay: Whole-cell patch-clamp on a cell line stably expressing Kv1.3; assay type: cell-based; parameters: Kd Kv1.3; other: whole-cell patch-clamp, cell line stably expressing Kv1.3; Kd Kv1.3; mean ± S.D; Kd Kv1.3 (cloned); other: whole-cell patch-clamp, three to five concentrations, n = 3; conditions: whole-cell patch-clamp, cell line stably expressing Kv1.3; mean ± S.D.
Procedure: (§1) Electrophysiology. All experiments were conducted in the whole-cell configuration of the patch-clamp technique with a holding potential of −80 mV on a cell line stably expressing Kv1.3. Pipette resistances averaged 2.0 MΩ, and series resistance compensation of 80% was employed when currents exceeded 2 nA. Kv1.3 currents were elicited by repeated 200 ms or 2 sec pulses from −80 mV to 40 mV, applied at intervals of 30 or 60 s.

LogP determined by HPLC = assay type: physicochemical
potassium channels = conditions: background statement; read-out: Kd, block of potassium channels; cited from earlier work
Kv1.3 [2] = molecular target: Kv1.3 (UniProt P16390); assay: Whole-cell patch-clamp on a cell line stably expressing Kv1.3; assay type: cell-based; conditions: FIG. 1A / 1B
Procedure: as §1

[3] = tested on: delayed-type hypersensitivity (DTH) response; conditions: mini-pigs, cited from earlier work

T1 sequence (B1AWN6 whole entry): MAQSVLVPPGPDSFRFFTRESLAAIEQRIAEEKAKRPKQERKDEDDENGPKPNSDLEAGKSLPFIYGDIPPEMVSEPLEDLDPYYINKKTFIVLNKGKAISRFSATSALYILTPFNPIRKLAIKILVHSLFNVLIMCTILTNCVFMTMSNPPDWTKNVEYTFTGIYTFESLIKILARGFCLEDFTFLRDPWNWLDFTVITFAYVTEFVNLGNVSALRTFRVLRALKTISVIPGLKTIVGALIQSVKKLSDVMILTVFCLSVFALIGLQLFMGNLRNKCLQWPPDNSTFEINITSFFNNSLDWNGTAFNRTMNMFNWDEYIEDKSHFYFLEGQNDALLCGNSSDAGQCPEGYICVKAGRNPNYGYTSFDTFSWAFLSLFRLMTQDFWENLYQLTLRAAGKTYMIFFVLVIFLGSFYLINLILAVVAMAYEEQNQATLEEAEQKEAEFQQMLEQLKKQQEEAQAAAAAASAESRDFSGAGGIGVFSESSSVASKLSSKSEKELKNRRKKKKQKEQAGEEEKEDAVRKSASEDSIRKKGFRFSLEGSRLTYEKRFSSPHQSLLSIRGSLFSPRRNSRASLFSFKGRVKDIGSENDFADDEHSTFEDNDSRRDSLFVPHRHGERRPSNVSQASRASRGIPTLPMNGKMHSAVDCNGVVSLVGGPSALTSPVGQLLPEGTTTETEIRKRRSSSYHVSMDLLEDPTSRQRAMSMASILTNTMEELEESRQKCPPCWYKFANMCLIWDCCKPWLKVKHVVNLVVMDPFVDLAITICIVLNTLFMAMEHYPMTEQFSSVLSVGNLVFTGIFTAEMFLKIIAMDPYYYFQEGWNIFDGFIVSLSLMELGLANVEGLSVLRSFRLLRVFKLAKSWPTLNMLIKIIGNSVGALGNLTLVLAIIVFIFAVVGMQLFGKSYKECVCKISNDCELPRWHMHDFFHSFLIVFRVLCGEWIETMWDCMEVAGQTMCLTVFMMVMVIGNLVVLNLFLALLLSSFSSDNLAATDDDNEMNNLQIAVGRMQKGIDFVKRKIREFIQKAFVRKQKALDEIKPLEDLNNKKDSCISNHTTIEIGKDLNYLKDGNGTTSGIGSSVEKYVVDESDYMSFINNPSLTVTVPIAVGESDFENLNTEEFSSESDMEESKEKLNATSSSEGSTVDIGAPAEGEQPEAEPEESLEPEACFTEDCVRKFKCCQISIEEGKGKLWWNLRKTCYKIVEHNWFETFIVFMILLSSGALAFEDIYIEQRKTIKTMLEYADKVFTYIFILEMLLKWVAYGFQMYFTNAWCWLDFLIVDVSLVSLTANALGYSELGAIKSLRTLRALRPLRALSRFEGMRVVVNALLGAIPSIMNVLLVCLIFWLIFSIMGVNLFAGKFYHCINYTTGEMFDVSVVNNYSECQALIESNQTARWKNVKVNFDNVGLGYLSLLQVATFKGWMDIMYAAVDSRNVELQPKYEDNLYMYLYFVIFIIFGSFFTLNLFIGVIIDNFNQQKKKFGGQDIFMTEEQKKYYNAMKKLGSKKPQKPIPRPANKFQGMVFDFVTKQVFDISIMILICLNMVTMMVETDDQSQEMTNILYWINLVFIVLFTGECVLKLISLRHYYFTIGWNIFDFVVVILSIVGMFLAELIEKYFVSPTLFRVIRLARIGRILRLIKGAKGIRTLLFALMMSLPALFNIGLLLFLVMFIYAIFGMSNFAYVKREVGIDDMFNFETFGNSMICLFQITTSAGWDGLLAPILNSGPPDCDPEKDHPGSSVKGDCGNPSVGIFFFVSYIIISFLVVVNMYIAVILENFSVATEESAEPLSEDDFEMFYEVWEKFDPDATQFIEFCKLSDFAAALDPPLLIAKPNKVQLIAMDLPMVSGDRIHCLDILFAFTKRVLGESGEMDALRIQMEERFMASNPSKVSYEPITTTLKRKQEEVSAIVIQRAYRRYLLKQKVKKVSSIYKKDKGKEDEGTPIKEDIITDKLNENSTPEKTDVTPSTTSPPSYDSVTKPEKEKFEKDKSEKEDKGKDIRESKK

Compound | S (selectivity over Nav1.2), S = Kd Nav1.2/Kd Kv1.3 (Nav1.2) | Kd (Kv1.3 [1]) [µM] | melting point [°C] | chromatographic logP (LogP determined by HPLC) | inhibition of Kv1.3 current (Kv1.3 [2]) | Kd (potassium channels) [µM] | suppression of primary DTH response [3] | suppression of secondary DTH response [3]
COc1c2ccoc2cc2oc(=O)ccc12 [5-MOP, 5-Methoxypsoralen] | – | – | – | – | – | 100 | – | –
O=c1ccc2c(OCC3CCCCC3)c3ccoc3cc2o1 [J 14, 4-Cyclohexylmethoxy-7H-furo[3,2-g][1]benzopyran-7-on] | 48 | 0.138 ± 0.017 | 153.5 | 4.41 | – | – | – | –
O=c1ccc2c(OC(c3ccccc3)c3ccccc3)c3ccoc3cc2o1 [J 17, 4-Diphenylmethoxy-7H-furo[3,2-g][1]benzopyran-7-on] | 38 | 0.068 ± 0.012 | 173 | 4.12 | – | – | – | –
O=c1ccc2c(OCCCCc3ccccc3)c3ccoc3cc2o1 [J 19 (Psora 4), 4-(4-Phenylbutoxy)-7H-furo[3,2-g][1]benzopyran-7-one] | – | – | – | 4.33 | – | – | – | –
O=c1ccc2c(OCCCC3CCCCC3)c3ccoc3cc2o1 [J 21, 4-(3-Cyclohexylpropoxy)-7H-furo[3,2-g][1]benzopyran-7-on] | 8 | 0.144 ± 0.043 | 115 | 5.34 | – | – | – | –
O=c1ccc2c(OCCCCCc3ccccc3)c3ccoc3cc2o1 [J 22, 4-(5-Phenylpentoxy)-7H-furo[3,2-g][1]benzopyran-7-one] | 262 | 0.0061 ± 0.0007 | 94.5 | 4.71 | – | – | – | –
O=c1ccc2c(OCCC3CCCCC3)c3ccoc3cc2o1 [J 23, 4-(2-Cyclohexylethoxy)-7H-furo[3,2-g][1]benzopyran-7-on] | 11 | 0.132 ± 0.033 | 117 | 4.82 | – | – | – | –
C=C1C[C@@]2(O)[C@@H]3CC[C@@]4(C)[C@@H]5C=CC(=O)OC[C@]5(C(C)OC(C)=O)[C@@H](OC(C)=O)[C@@H](OC(C)=O)[C@@H]4[C@@]3(C)[C@H](OC(C)=O)[C@H](OC(C)=O)[C@@]2(C)C2(C(=O)OC)O[C@H]12 (stereo partly drawn) [correolide] | – | – | – | – | – | – | effectively suppress | much less effective
MgTX: Kv1.3 blocker (TIINVKCTSPKQCLPPCKAQFGQSAGAKCMNGKCKCYPH; ends and bridges not checked; cysteine pairing not given here; UniProt P40755 1-39, looked up) | – | – | – | – | – | – | effectively suppress | much less effective

Continued, in another order:

S (selectivity over Nav1.2), S = Kd Nav1.2/Kd Kv1.3 (Nav1.2) | Kd (Kv1.3 [1]) [µM] | melting point [°C] | chromatographic logP (LogP determined by HPLC) | inhibition of Kv1.3 current (Kv1.3 [2]) | Compound | Kd (potassium channels) [µM] | suppression of primary DTH response [3] | suppression of secondary DTH response [3]
43 | 0.35 ± 0.072 | 136 | 3.25 | – | O=c1ccc2c(OCc3ccccc3)c3ccoc3cc2o1 [5-BOP, 4-Benzyloxy-7H-furo[3,2-g][1]benzopyran-7-one] | – | – | –
41 | 0.169 ± 0.016 | 154.5 | 3.55 | – | O=c1ccc2c(OCCc3ccccc3)c3ccoc3cc2o1 [J 09, 4-(2-Phenylethoxy)-7H-furo[3,2-g][1]benzopyran-7-one] | – | – | –
25 | 0.072 ± 0.012 | 141.5 | 3.87 | – | CC(COc1c2ccoc2cc2oc(=O)ccc12)c1ccccc1 (stereo not drawn) [J 12, R,S-4-(2-Phenylpropoxy)-7H-furo[3,2-g][1]benzopyran-7-on] | – | – | –
397 | 0.0063 ± 0.001 | 109 | 3.97 | dose-dependent inhibition | O=c1ccc2c(OCCCc3ccccc3)c3ccoc3cc2o1 [J 15, 4-(3-Phenylpropoxy)-7H-furo[3,2-g][1]benzopyran-7-one] | – | – | –
41 | 0.172 ± 0.037 | 140 | 3.79 | – | O=c1ccc2c(OC/C=C/c3ccccc3)c3ccoc3cc2o1 [J 16, trans-4-(3-Phenyl-2-propenyloxy)-7H-furo[3,2-g][1]benzopyran-7-on] | – | – | –
286 | 0.0035 ± 0.0005 | 187 | 4.4 | – | O=c1ccc2c(OCc3ccc(-c4ccccc4)cc3)c3ccoc3cc2o1 [J 20, 5-Biphenylmethoxypsoralen] | – | – | –
